Assay results from patent US10877026B2, “Blood brain barrier models and methods to generate and use the same” (Purdue Research Foundation, priority 2016, dated 2020).
Where two headings read alike, the source gives them in different places.

Assays:
Pgp = target: T1, Pgp (Homo sapiens, UniProt P08183); assay: Drug-interaction of elacridar and digoxin in BBB culture models; format: cell-based; settings: triculture versus hCMEC/D3 monoculture or astrocyte-pericyte co-culture, FIG. 17
T1 construct: endogenous in cells; host or cells: hCMEC/D3 monoculture, astrocyte-pericyte coculture and triculture
T1 sequence (P08183 whole entry): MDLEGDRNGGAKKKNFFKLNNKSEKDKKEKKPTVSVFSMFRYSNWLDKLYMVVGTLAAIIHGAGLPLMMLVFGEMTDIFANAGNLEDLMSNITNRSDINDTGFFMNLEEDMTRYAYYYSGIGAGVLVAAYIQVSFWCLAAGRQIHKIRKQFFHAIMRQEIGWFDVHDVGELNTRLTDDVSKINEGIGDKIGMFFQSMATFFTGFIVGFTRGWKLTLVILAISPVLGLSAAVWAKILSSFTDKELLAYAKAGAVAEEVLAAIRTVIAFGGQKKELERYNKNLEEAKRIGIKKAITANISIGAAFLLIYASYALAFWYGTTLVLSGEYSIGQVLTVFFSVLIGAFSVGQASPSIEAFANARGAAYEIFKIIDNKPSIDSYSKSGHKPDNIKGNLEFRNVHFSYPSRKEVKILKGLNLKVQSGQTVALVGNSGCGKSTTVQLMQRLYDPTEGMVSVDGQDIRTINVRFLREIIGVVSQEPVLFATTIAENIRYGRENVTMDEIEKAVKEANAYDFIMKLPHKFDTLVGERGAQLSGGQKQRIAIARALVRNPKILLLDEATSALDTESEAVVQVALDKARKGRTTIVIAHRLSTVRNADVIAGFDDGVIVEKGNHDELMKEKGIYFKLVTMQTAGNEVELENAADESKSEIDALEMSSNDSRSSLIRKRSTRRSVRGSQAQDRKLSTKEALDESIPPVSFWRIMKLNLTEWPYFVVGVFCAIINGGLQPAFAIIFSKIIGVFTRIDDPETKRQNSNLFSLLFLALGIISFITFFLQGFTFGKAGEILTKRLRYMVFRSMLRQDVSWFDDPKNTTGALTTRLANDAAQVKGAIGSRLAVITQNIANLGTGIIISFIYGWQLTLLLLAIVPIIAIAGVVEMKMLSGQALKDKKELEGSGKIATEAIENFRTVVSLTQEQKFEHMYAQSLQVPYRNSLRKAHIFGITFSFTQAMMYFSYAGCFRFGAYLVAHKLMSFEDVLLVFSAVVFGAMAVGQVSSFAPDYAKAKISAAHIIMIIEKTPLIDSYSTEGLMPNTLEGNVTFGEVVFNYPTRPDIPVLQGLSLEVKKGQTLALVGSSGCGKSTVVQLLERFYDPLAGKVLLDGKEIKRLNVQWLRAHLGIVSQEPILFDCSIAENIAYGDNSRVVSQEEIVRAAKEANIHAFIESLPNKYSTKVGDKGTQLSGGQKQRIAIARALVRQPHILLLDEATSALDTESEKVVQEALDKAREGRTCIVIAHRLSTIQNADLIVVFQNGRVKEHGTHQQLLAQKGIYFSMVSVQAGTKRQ

[1] = test system: direct-contact triculture of astrocytes, pericytes and hCMEC/D3 cells
in vitro [2] = settings: human
in vitro [3] = settings: human; remark: listed apart in the source
Experimental: (§1) For human astrocyte monocultures, 4×10^4 cells were seeded onto Transwells® coated with 2 μg/cm^2 poly-L-lysine and grown for 9 days prior to permeability studies.
(§2) Before all permeability studies, cells were washed twice with PBS before equilibrating in HBSS for 20 minutes shortly before the study. After study initiation, 100 μL samples were taken at 15, 30, 45, 60, and 90 minute time points. 4 mL of scintillation cocktail was added for analysis by scintillation counting.

[4] = Apparent permeability across human astrocyte monoculture; format: in vitro ADME; settings: human; astrocytes grown in monoculture
Experimental: as §1
as §2, with “. Before” for “Before”

[5] = test system: human astrocyte monolayers; assay: as above; format: in vitro ADME
Experimental: as §1
as §2, with “. Before” for “Before”

[6] = test system: co-culture of astrocytes and pericytes; assay: Mannitol permeability across mono- or co-cultures of astrocytes and pericytes; format: in vitro ADME
direct contact coculture = assay: MTT cell viability assay; format: cell-based, human; settings: n=6
Experimental: Cell viability in the presence of various HEPES concentrations was inferred by the mitochondrial oxidation of 3-(4,5-dimethylthiazol-2-yl)-2,5-diphenyltetrazolium bromide (MTT) dye. The direct contact coculture was plated in a 96-well plate following the same methods as stated above. On Day 7 post hCMEC/D3 plating, media containing HEPES was removed and replaced with 190 μL, fresh media and 10 μL of 5 mg/mL MTT and incubated at 37° C. with 5% CO2 for 4 hours. MTT was then removed and replaced with 200 μL DMSO and left agitating at room temperature for 1 hour. Absorbance at 570 nm was determined using a plate reader. Cell viability was normalized to 10 mM HEPES control. Assays were performed with n=6.

[7] = test system: direct-contact triculture of astrocytes, pericytes and hCMEC/D3 cells; assay: Permeability across direct-contact triculture BBB model; settings: hCMEC/D3 monoculture as control, n=5, FIG. 9
hCMEC/D3 monoculture = assay: Apparent permeability across hCMEC/D3 monoculture on Transwell
Experimental: as §1, §2

[8] = test system: direct contact coculture of human astrocytes and hCMEC/D3 cells; assay: Apparent permeability across direct contact coculture on Transwell; settings: for apparent permeability, reproducibility: different passage number
[9] = test system: direct contact coculture of human astrocytes and hCMEC/D3 cells

## COc1cc2c(cc1OC)CN(CCc1ccc(NC(=O)c3cccc4c(=O)c5cccc(OC)c5[nH]c34)cc1)CC2 [elacridar]
Pgp
  inhibition of Pgp function (digoxin): more difficult to inhibit Pgp function in the triculture

## Cc1ncc(C[n+]2csc(CCO)c2C)c(N)n1 [Thiamine]
[1]
  transcellular permeability across the BBB-triculture relative to L-histidine: significantly slower than L-histidine

## CC(C)NCC(O)COc1cccc2ccccc12 (stereo not drawn) [Propranolol]
[1]
  transcellular permeability across the BBB-triculture relative to L-histidine: significantly slower than L-histidine
In vitro [2]; apparent permeability
  Papp A→B at 90 min, 0.25 μCi/mL: 16.1 ± 0.4 ×10⁻⁶ cm/s
In vitro [3]
  Papp A→B at 90 min, 0.25 μCi/mL: 19.1 ± 1.9 ×10⁻⁶ cm/s
[4]
  Papp A→B at 90 min, 0.25 μCi/mL: 45.8 ± 4.1 ×10⁻⁶ cm/s
[5]
  fold lower permeability in hCMEC/D3 and direct contact coculture than in astrocyte monoculture: ~3 fold

## CC(=O)O[C@H]1C(=O)[C@@]2(C)[C@H]([C@H](OC(=O)c3ccccc3)[C@]3(O)C[C@H](OC(=O)[C@H](O)[C@@H](NC(=O)c4ccccc4)c4ccccc4)C(C)=C1C3(C)C)[C@]1(OC(C)=O)CO[C@@H]1C[C@@H]2O [paclitaxel]
[1]
  transcellular permeability across the BBB-triculture relative to L-histidine: significantly slower than L-histidine

## OC[C@@H](O)[C@@H](O)[C@H](O)[C@H](O)CO [Mannitol]
[1]; human, 90 min, 0.25 μCi/mL
  decrease in permeability, mono- versus tri-culture: 1.5 fold
[6]; co-culture of astrocytes and pericytes versus astrocytes monoculture, FIG. 8B, n=6
  effective permeability: lower in comparison to monoculture of astrocytes
[6]; co-culture versus astrocytes or pericytes alone, FIG. 8A
  apparent permeability: lower in the co-culture of astrocytes and pericytes
In vitro [2]; Papp
  Papp A→B at 90 min, 0.25 μCi/mL: 15.2 ± 0.69 ×10⁻⁶ cm/s
In vitro [2]; apparent permeability
  Papp A→B at 90 min, 0.25 μCi/mL: 15.2 ± 0.7 ×10⁻⁶ cm/s

## O=S(=O)(O)CCN1CCN(CCO)CC1 [HEPES, 4-(2-hydroxyethyl)-1-piperazineethanesulfonic acid]
Direct contact coculture; 25 mM HEPES in comparison to 10 mM HEPES control
  change in cell viability (MTT): −8.2±2.0%
Direct contact coculture; 50 mM HEPES compared to 10 mM HEPES control
  change in cell viability (MTT): −28.4±2.6%

## Inulin
[7]
  decrease in permeability, mono- versus tri-culture: 8 fold
hCMEC/D3 monoculture; hCMEC/D3 monoculture, n=3
  apparent permeability: 8.46±0.02 ×10^−6 cm/s
[8]; Table 4, values match the direct contact coculture
  Papp: 0.754 ± 0.030 ×10^−5 cm/s
[8]; direct contact coculture, n=3
  apparent permeability: 7.55±0.3 ×10^−6 cm/s
[8]; first additional independent experiment
  apparent permeability, reproducibility: 7.51±0.01 ×10^−6 cm/s
[8]; second additional independent experiment
  apparent permeability, reproducibility: 7.94±0.03 ×10^−6 cm/s

## NC(N)=O [Urea]
hCMEC/D3 monoculture
  apparent permeability: 2.96±0.11 ×10^−5 cm/s
[9]
  Papp: 2.43 ± 0.155 ×10^−5 cm/s
  apparent permeability: 2.43±0.15 ×10^−5 cm/s
